± gives the standard deviation of the averaged measurements.
What follows are test systems tested with COc1cc([C@@H]2c3cc4c(cc3[C@@H](O[C@@H]3O[C@@H]5CO[C@@H](C)O[C@H]5[C@H](O)[C@H]3O)[C@H]3COC(=O)[C@H]23)OCO4)cc(OC)c1O [ETOPOSIDE] (assay: surviving fraction relative to DMSO-only wells; higher = less growth inhibition). Settings: 1000 nM; exposure time: 5 days.
Method in brief: (§1)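 Log-phase tumour cell lines were seeded at 250–500 cells per well in 384-well plates. After 24 hours they were exposed continuously for five days to inhibitors at 0.5, 1, 5, 10, 50, 100, 500 and 1000 nM. Viability was read by CellTiter-Glo luminescence after 10 minutes at room temperature, and surviving fraction is luminescence normalised to the median of DMSO-only wells. Each line was screened three times and kept only if replicate Pearson r >0.7 and median Z' >0.3.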

Test System	surviving fraction
HMLE3 BREAST	0.27 ± 0.017
HMT3552 BREAST	0.22
HOS BONE	0.067 ± 0.0056
HOSMNG BONE	0.78 ± 0.021
HS57T BREAST	0.288 ± 0.017
HS578T BREAST	0.372 ± 0.029
HSSYII SYNOVIAL	0.0892 ± 0.0041
HT1080 SOFT TISSUE	0.222 ± 0.0056
HU09 BONE	0.0523 ± 0.0064
JIMT1 BREAST	0.694 ± 0.028
JURKAT HAEMATOPOIETIC AND LYMPHOID TISSUE	0.0413 ± 0.00058
KPD BONE	0.292 ± 0.014
LM7 BONE	0.449 ± 0.045
MCF7 BREAST	0.644 ± 0.041
MDAMB134 BREAST	1.02 ± 0.055
MDAMB157 BREAST	0.221 ± 0.053
MDAMB231 BREAST	0.454 ± 0.043
MDAMB361 BREAST	0.972 ± 0.049
MDAMB436 BREAST	0.416 ± 0.059

The test systems below were run with C#Cc1cccc(Nc2ncnc3cc(OCCOC)c(OCCOC)cc23)c1 [ERLOTINIB] in the same assay as above. Settings: 0.5 nM; exposure time: 5 days.
Method in brief: as §1

Test System	surviving fraction
22RV1 PROSTATE	1.1 ± 0.11
93VU HEADNECK	1.1 ± 0.058
ASKA SYNOVIAL	1.12 ± 0.047
BT20 BREAST	1.22 ± 0.026
BT549 BREAST	0.973 ± 0.036
CADOES1 SOFT TISSUE	0.854 ± 0.09
CAL51 BREAST	0.969 ± 0.04
CAL120 BREAST	0.971 ± 0.033
CASKI CERVIX	0.908 ± 0.099
CHLA90 AUTONOMIC GANGLIA	1.01 ± 0.059
CME SYNOVIAL	1.29 ± 0.069
COLO320DM LARGE INTESTINE	1.17 ± 0.18
DU4475 BREAST	0.965 ± 0.051
HCC38 BREAST	1.16 ± 0.22
HCC70 BREAST	1.1 ± 0.094
HCC78 LUNG	0.768 ± 0.087
HCC202 BREAST	1.37 ± 0.29
HCC1806 BREAST	1.04 ± 0.062
HCC1954 BREAST	1.05 ± 0.059

Test System	surviving fraction
HCT15 LARGE INTESTINE	1.06 ± 0.12
HELA CERVIX	1.06 ± 0.057
HMLE3 BREAST	1.07 ± 0.021
HMT3552 BREAST	1.03 ± 0.024
HOS BONE	1.038 ± 0.0011
HS57T BREAST	1.03 ± 0.086
HS578T BREAST	1.18 ± 0.052
HSSYII SYNOVIAL	0.966 ± 0.066
HU09 BONE	1.08 ± 0.11
JIMT1 BREAST	1 ± 0.012
JURKAT HAEMATOPOIETIC AND LYMPHOID TISSUE	1.05 ± 0.025
KPD BONE	1.07 ± 0.11
LM7 BONE	1.09 ± 0.1
MCF7 BREAST	0.942 ± 0.022
MDAMB157 BREAST	0.981 ± 0.071
MDAMB231 BREAST	1.01 ± 0.028
MDAMB361 BREAST	0.873 ± 0.095
MDAMB436 BREAST	0.987 ± 0.03

Same assay, conditions: 1 nM; exposure time: 5 days

Test System	surviving fraction
22RV1 PROSTATE	1.01 ± 0.12
93VU HEADNECK	1.04 ± 0.095
143B BONE	1.11 ± 0.067
A549 LUNG	1.06 ± 0.026
ASKA SYNOVIAL	1.15 ± 0.07
BT20 BREAST	1.19 ± 0.11
BT549 BREAST	1.01 ± 0.15
CADOES1 SOFT TISSUE	0.853 ± 0.033
CAL51 BREAST	0.993 ± 0.069
CAL120 BREAST	0.964 ± 0.036
CASKI CERVIX	0.856 ± 0.053
CHLA90 AUTONOMIC GANGLIA	0.963 ± 0.12
CME SYNOVIAL	1.29 ± 0.052
COLO320DM LARGE INTESTINE	0.993 ± 0.074
DU4475 BREAST	0.972 ± 0.086
H23 LUNG	1.04 ± 0.038
HCC38 BREAST	1.22 ± 0.14
HCC1806 BREAST	1.1 ± 0.067
HCC1954 BREAST	1.14 ± 0.082

Test System	surviving fraction
HCT15 LARGE INTESTINE	1 ± 0.15
HELA CERVIX	1.08 ± 0.045
HMT3552 BREAST	1.04 ± 0.036
HOSMNG BONE	1 ± 0.041
HS57T BREAST	1.02 ± 0.071
HS578T BREAST	1.4 ± 0.32
HSSYII SYNOVIAL	1.03 ± 0.036
HT1080 SOFT TISSUE	1.05 ± 0.032
HU09 BONE	0.986 ± 0.073
JIMT1 BREAST	0.994 ± 0.044
KPD BONE	1.03 ± 0.042
LM7 BONE	0.989 ± 0.043
MCF7 BREAST	0.9629 ± 0.007
MDAMB134 BREAST	0.92 ± 0.024
MDAMB157 BREAST	0.985 ± 0.11
MDAMB231 BREAST	0.997 ± 0.013
MDAMB361 BREAST	0.849 ± 0.05
MDAMB436 BREAST	1.08 ± 0.073

Same assay, conditions: 5 nM; exposure time: 5 days

Test System	surviving fraction
22RV1 PROSTATE	1.03 ± 0.048
93VU HEADNECK	1.1 ± 0.067
143B BONE	1.13 ± 0.067
A549 LUNG	1.06 ± 0.027
ASKA SYNOVIAL	1.18 ± 0.06
BT20 BREAST	1.19 ± 0.11
BT549 BREAST	1.06 ± 0.11
CADOES1 SOFT TISSUE	0.882 ± 0.11
CAL51 BREAST	1.05 ± 0.067
CAL120 BREAST	0.965 ± 0.041
CME SYNOVIAL	1.32 ± 0.091
COLO320DM LARGE INTESTINE	1.06 ± 0.094
H23 LUNG	0.998 ± 0.065
HCC38 BREAST	1.48 ± 0.025
HCC70 BREAST	1.15 ± 0.071
HCC78 LUNG	0.918 ± 0.11
HCC202 BREAST	1.2 ± 0.2
HCC1806 BREAST	1.13 ± 0.056
HCC1954 BREAST	1.35 ± 0.075

Test System	surviving fraction
HCT15 LARGE INTESTINE	0.979 ± 0.17
HELA CERVIX	1.04 ± 0.089
HMLE3 BREAST	1.1 ± 0.038
HMT3552 BREAST	0.994 ± 0.029
HOS BONE	1.03 ± 0.028
HOSMNG BONE	0.915 ± 0.044
HS57T BREAST	1.06 ± 0.046
HS578T BREAST	1.21 ± 0.22
HSSYII SYNOVIAL	1.02 ± 0.058
HT1080 SOFT TISSUE	1.06 ± 0.027
HU09 BONE	1.12 ± 0.073
JURKAT HAEMATOPOIETIC AND LYMPHOID TISSUE	1.05 ± 0.037
KPD BONE	1.06 ± 0.076
LM7 BONE	1.2 ± 0.043
MCF7 BREAST	0.993 ± 0.044
MDAMB134 BREAST	0.899 ± 0.018
MDAMB231 BREAST	1.02 ± 0.019
MDAMB361 BREAST	0.83 ± 0.037
MDAMB436 BREAST	1.07 ± 0.091

Same assay, conditions: 10 nM; exposure time: 5 days

Test System	surviving fraction
22RV1 PROSTATE	1 ± 0.028
93VU HEADNECK	1.04 ± 0.12
A549 LUNG	1.056 ± 0.0021
ASKA SYNOVIAL	1.19 ± 0.036
BT20 BREAST	1.13 ± 0.069
BT549 BREAST	1.1 ± 0.12
CADOES1 SOFT TISSUE	0.839 ± 0.11
CAL51 BREAST	1.02 ± 0.062
CAL120 BREAST	0.963 ± 0.017
CASKI CERVIX	0.8153 ± 0.0021
CHLA90 AUTONOMIC GANGLIA	0.94 ± 0.041
CME SYNOVIAL	1.33 ± 0.17
COLO320DM LARGE INTESTINE	1.09 ± 0.12
H23 LUNG	0.992 ± 0.055
HCC38 BREAST	1.29 ± 0.15
HCC70 BREAST	1.06 ± 0.097

Test System	surviving fraction
HCC78 LUNG	1.02 ± 0.033
HCC202 BREAST	1.2 ± 0.12
HCC1806 BREAST	1.15 ± 0.061
HCC1954 BREAST	1.35 ± 0.23
HCT15 LARGE INTESTINE	0.977 ± 0.078
HELA CERVIX	1.05 ± 0.04
HMLE3 BREAST	1.07 ± 0.026
HMT3552 BREAST	1.03 ± 0.02
HOS BONE	1.03 ± 0.022
HOSMNG BONE	0.947 ± 0.078
HS57T BREAST	1.1 ± 0.052
HS578T BREAST	1.23 ± 0.063
HSSYII SYNOVIAL	1.06 ± 0.031
HT1080 SOFT TISSUE	1.05 ± 0.026
HU09 BONE	1.04 ± 0.1
JIMT1 BREAST	0.9948 ± 0.0084

Reference: the supplement of paper PMC6045584
